| melting point [°C] | Structure (SMILES) |
| --- | --- |
| 191 to 192 | CCc1nnc(C2=C(OC(=O)c3ccccc3)c3ccccc3S(=O)(=O)N2C)o1 |
| 78.1 to 79.9 | COCCc1nc2c(N)nc3ccccc3c2n1CCCCNC(=O)c1ccc2ccccc2n1 |
| 98 to 100 | COC(=O)CCc1cc2cc(Cl)ccc2n1S(=O)(=O)c1cccc(C(F)(F)F)c1 |
| 272 to 273 | O=C(O)c1cccc(-c2cc(-c3ccc(C(F)(F)F)cc3)no2)c1 |
| 205 | CCCCn1ccc(-c2ccc(Oc3cc(C)nc(C)c3)c(F)c2)c(C#N)c1=O |
| 166 to 168 | CCOc1ccccc1C(=O)Nc1cccc(C)c1C(N)=O |
| 218 to 219 | COC(=O)Nc1cn2nc(OCc3cc(OC)c(OC)c(OC)c3Br)ccc2n1 |
| 100 to 101 | O=C(Nc1ccc(Oc2ccccc2)cc1)N1CCN(c2nnc(Cc3ccccc3)c3ccccc23)CC1 |
| 180 to 182 | COc1cc2sc(C(N)=O)cc2c(Cl)c1OC |
| 85 to 87 | COc1cc(C)cc2nc(SCc3ccccc3)nn12 |
| 134 to 137 | O=C1C2CCCC2=Nc2ccccc2N1Cc1ccc(F)cc1 (stereo not drawn) |
| > 250 | O=C(O)c1cccc(CN2CCC(N3C(=O)Nc4ccccc4C3c3ccccc3)CC2)c1 (stereo not drawn) |
| 153 to 155 | O=C(NCc1ccccn1)Nc1cc(N2CC(c3ccc(F)cc3)CC2=O)ccn1 (stereo not drawn) |
| 180 to 181 | COC(=O)c1c(C)[nH]c(-c2ncncc2Cl)c1C(=O)OC |
| 112 | Nc1cc(C(=O)c2ccccc2)ccc1N1CCCC1 |
| 121 to 124 | CCCCCCCCCCCCCCCCOc1cc(C(=O)O)c(O)c2ccccc12 |
| 202 to 204 | CCCn1nc2c(N)nc3ccccc3c2c1CC(C)(C)S(C)(=O)=O |
| 192 to 194 | COc1ccc(S(=O)(=O)N(Cc2cccnc2)c2c(C(=O)O)cnc3c2c(C)nn3-c2ccccc2)cc1 |

| melting point [°C] | Structure (SMILES) |
| --- | --- |
| 135 | O=C(NCCc1ccccc1F)[C@@H]1Cc2ccccc2N1 |
| 175 to 177 | CCOC(=O)c1cn(CC)c2c(F)c(C(=O)C=CN(C)C)c(F)cc2c1=O |
| 87.2 to 88 | Cc1c(N)c([N+](=O)[O-])cc(F)c1F |
| 262 to 263 | Nc1nc2ccccc2c2c1nc(CO)n2Cc1cc(-c2ccc(F)cc2)no1 |
| 190 to 191 | CCc1ccc(N/C=C/[N+](=O)[O-])c(C(=O)O)c1 |
| 220 to 221 | NC(=O)Cn1cc(-c2ccccc2)c2cc(Cl)ccc21 |
| 122 to 124 | CCN1CNS(=O)(=O)c2cc(Br)ccc21 |
| 168 to 170 | Cn1c(=O)c(Oc2ccc(F)cc2F)cc2cnc(Cl)cc21 |
| 174 to 176 | O=C(NCNc1c(Nc2cccnc2)c(=O)c1=O)c1ccc(Cl)cc1 |
| 163 to 165 | O=C(O)Cn1cc(Cc2cccc([N+](=O)[O-])c2)c2ccccc21 |
| 164 to 166 | COc1c(N2CCNC(CF)(CF)C2)c(F)cc2c(=O)c(C(=O)O)cn(C3CC3F)c12 (stereo not drawn) |
| 69 to 70 | CCOC(=O)CCCCCN(NS(=O)(=O)c1ccc(Cl)cc1)C(=O)Nc1cc(OC)cc(C(C)(C)C)c1O |
| 60 to 63 | O=S(=O)(c1ccc(Cl)cc1)C(C/C=C\CO)c1cc(F)ccc1F (stereo not drawn) |
| 190 to 194 | CC1(C2CCCC2)Cc2cc(O)c(Cl)c(Cl)c2C1=O (stereo not drawn) |
| 238 to 242 | CCOC(=O)c1cnc2nc(C=CC(N)=O)c(OCC)cc2c1Nc1ccc(OC)cc1 |
| 185 to 187 | CCCOc1ccc(OC)cc1-c1ncc(C(=O)O)c(=O)[nH]1 |
| 184 to 188 | O=C(NC1CCN(Cc2ccccc2)CC1)c1ccc(NCc2ccnc3ccccc23)cc1 |
| 322 to 326 | CCn1c(=O)c2cc(C(=O)O)cn2c2cc(Cl)ccc21 |

Continued, molecule first:

| Structure (SMILES) | melting point [°C] |
| --- | --- |
| CC(N)=CC(=O)CS(=O)(=O)NC(C)C | 119 to 121 |
| CC(C)c1nc(O)cc(=O)n1C | 159 |
| O=Cc1ccc(O)c2ccsc12 | 204 |
| COC(=O)C(Cl)(C(=O)OC)[C@@H](C[N+](=O)[O-])c1ccccc1 | 175 to 177 |
| Cc1nc2ccccc2n2cnc(C(=O)OC(C)C)c12 | 182 to 183 |
| NC(=O)Cc1cccc2c(-c3ccccc3)onc12 | 191 to 192 |
| CC(=O)SCC(=O)NC(=O)Cc1ccccc1 | 153 to 155 |
| CC(=O)Nc1ccccc1SCc1ncon1 | 89 |
| CN1C(=O)[C@H](NC(=O)CCc2cccc(C(F)(F)F)c2)N=C(c2ccccc2)c2ccccc21 | 135 to 136 |
| CCn1cnc2c(C#N)nc(Cl)cc21 | 138 |
| CC1(C)OC(c2cccc(S(C)(=O)=O)c2)=C(c2ccccc2)C1=O | 190 to 191 |
| COC1=C(OC)C(=O)C(CCCCCCCCCCCCCO)=C(C)C1=O | 65 to 66 |
| O=C1CCCN1Nc1ccncc1 | 177 to 180 |
| CCCCCOc1ccc(-c2ncc(C#N)c(Cl)n2)cc1 | 140 to 142 |
| CCC1c2c(ncn2C)CCN1C(=S)NC(C)C (stereo not drawn) | 196 |
| Cc1cccc(C(O)c2cncn2C(c2ccccc2)(c2ccccc2)c2ccccc2)c1C (stereo not drawn) | 203 to 207 |
| CCc1cc(S(=O)(=O)C(Br)(Br)Br)ccc1C(N)=O | 175 to 177 |
| CC#CCOc1ccc(SC(C(=O)NO)C(C)C)cc1 (stereo not drawn) | 128 |
| CN(C)c1cccc(NC(=O)NC2C(=O)N(CC34CC5CC(CC(C5)C3)C4)c3ccccc3N(c3ccccc3)C2=O)c1 (stereo not drawn) | 263 to 265 |

| Structure (SMILES) | melting point [°C] |
| --- | --- |
| CC(C)(C)c1cc(SC(Sc2cc(C(C)(C)C)c(O)c(C(C)(C)C)c2)c2cc(C(C)(C)C)c(O)c(C(C)(C)C)c2)cc(C(C)(C)C)c1O | 175 to 177 |
| CC(C)(c1ccc(N)c([N+](=O)[O-])c1)c1ccc(N)c([N+](=O)[O-])c1 | 207 to 210 |
| NC(=O)Cc1c[nH]c2ncccc12 | 180 to 181 |
| Cc1c2c(cc3ccc(=O)oc13)C=CC(C)(C)O2 | 105 to 107 |
| CCCCc1nc2c(N)nc3ccc(OCc4ccccc4)cc3c2n1CCCCNC(=O)c1ccccc1 | 173 to 174 |
| COc1ccc(CSc2ccncc2)c2c1OC(C)(C)C2 | 109 to 113 |
| Cc1c(-c2ccccc2)nnc(N(C)C)c1C | 86 to 89 |
| Clc1cn2c(Cl)cnc2c(Br)n1 | 100 to 101 |
| CCOc1nc(Cl)ncc1F | 30 to 32 |
| CC(CCC(O)C(C)(C)O)C1CCC2C3C(O)CC4CC(O)CCC4(C)C3CC(O)C12C (stereo not drawn) | 199 to 200 |
| ClCC1CCN(C(c2ccccc2)c2ccccc2)CC1 | 73 to 75 |
| c1ccc(CN(c2ccccc2)c2cccc3ccccc23)cc1 | 120 to 123 |
| Clc1cccc(C(c2ccc3[nH]cnc3c2)n2ccnc2)c1 (stereo not drawn) | 108 |
| O=C(c1ccccc1)c1cccnc1-c1nc(NCc2ccc(Cl)cc2)c2ccccc2n1 | 147 to 149 |
| COc1ccc(-c2nc(-c3ccccc3)c3ncc(Cl)cc3n2)cc1 | 193 to 194 |
| CCNC(=O)CCCC=CCC1C(O)CC(O)C1C=CC(O)CCc1ccccc1 (stereo not drawn) | 64 to 66 |
| CCC(=O)CC(C(C(=O)CC)c1ccc([N+](=O)[O-])cc1)[N+](=O)[O-] (stereo not drawn) | 61.5 to 65.6 |
| CN1CC(=Cc2c(F)c(F)c(N=[N+]=[N-])c(F)c2F)C(=O)C(=Cc2c(F)c(F)c(N=[N+]=[N-])c(F)c2F)C1 | 153 |

From a melting point compilation (Tetko et al.; mined from patent text by program, amines drawn as free bases though some values may be those of a salt)
